In patent publication US9597407B2, “Targeted antimicrobial moieties” (C3 Jian, Inc., priority 2009, dated 2017):

What was measured:
microorganisms = experiment: Morphology, biofilm and growth disruption by peptides (Table 5); assay type: cell-based; design: key: A: Peptide aggregates; B: Less hyphal formation; Clumps; Diffuse clumps and small polyps; F: Diffuse growth; H: Thin; I: Growth inhibition; Microcolony formation; Rippled; Small polyps; Thick; W: Halo formation on top, microlonies on bottom
Description: In certain embodiments peptides that induce alterations in phenotype or other biological activities can also be used as antimicrobial effector moieties.

bacteria = experiment: Binding of targeting peptides to microorganisms (Table 3); settings: peptide binding in aqueous buffers that varied depending on peptide solubility; preferably 1x PBS

“PF-655 (chain 1 DAPCFDDQFGDLKCQMC; chain 2 DAPCFDDQFGDLKCQMC; Peptide with targeting and/or antimicrobial activity)” was tested, and the “Organism, effect (morphology, biofilm and growth disruption)” value (microorganisms; B. subtilis) was “B. subtilis (H)”, the “Organism, effect (morphology, biofilm and growth disruption)” value (microorganisms; MRSA) was “MRSA (M)” and the “Organism, effect (morphology, biofilm and growth disruption)” value (microorganisms; S. epidermidis) was “S. epidermidis (R)”. For the same substance, the “Organism, effect (morphology, biofilm and growth disruption)” value (microorganisms; S. pneumoniae) was “S. pneumoniae (H)” and the “Target(s) (microorganism bound by the targeting peptide)” value (bacteria) was “M. smegmatis”.

“PF-656 (chain 1 RGMFVPFHDVDCVQ; chain 2 RGMFVPFHDVDCVQ; Peptide with targeting and/or antimicrobial activity)” was tested, and the “Organism, effect (morphology, biofilm and growth disruption)” value (microorganisms; MRSA) was “MRSA (R)” and the “Target(s) (microorganism bound by the targeting peptide)” value (bacteria) was “Mycobacteria spp”.

With “PF-657 (chain 1 YVANYTITQFGRDFDDRLAVAIHFA; chain 2 YVANYTITQFGRDFDDRLAVAIHFA; Peptide with targeting and/or antimicrobial activity)” the “Organism, effect (morphology, biofilm and growth disruption)” value (microorganisms; C. jeikeium) was “C. jeikeium (D)”, the “Organism, effect (morphology, biofilm and growth disruption)” value (microorganisms; E. faecalis) was “E. faecalis (D)” and the “Organism, effect (morphology, biofilm and growth disruption)” value (microorganisms; MRSA) was “MRSA (D)”. The “Organism, effect (morphology, biofilm and growth disruption)” value (microorganisms; S. epidermidis) was “S. epidermidis (C)”, the “Organism, effect (morphology, biofilm and growth disruption)” value (microorganisms; S. pneumoniae) was “S. pneumoniae (H)” and the “Target(s) (microorganism bound by the targeting peptide)” value (bacteria) was “Mycobacteria spp”.

For “PF-658 (chain 1 PTTPPPTTPPEIPTGGTVIST; chain 2 PTTPPPTTPPEIPTGGTVIST; Peptide with targeting and/or antimicrobial activity)”, the “Organism, effect (morphology, biofilm and growth disruption)” value (microorganisms; MRSA) was “MRSA (R)”, the “Organism, effect (morphology, biofilm and growth disruption)” value (microorganisms; S. pneumoniae) was “S. pneumoniae (H)” and the “Target(s) (microorganism bound by the targeting peptide)” value (bacteria) was “Mycobacteria spp”.

With “PF-659 (chain 1 TVIST; chain 2 TVIST; Peptide with targeting and/or antimicrobial activity)” the “Organism, effect (morphology, biofilm and growth disruption)” value (microorganisms; B. subtilis) was “B. subtilis (H)”, the “Organism, effect (morphology, biofilm and growth disruption)” value (microorganisms; MRSA) was “MRSA (R)” and the “Organism, effect (morphology, biofilm and growth disruption)” value (microorganisms; S. epidermidis) was “S. epidermidis (M)”. For the same substance, the “Organism, effect (morphology, biofilm and growth disruption)” value (microorganisms; S. pneumoniae) was “S. pneumoniae (C)” and the “Target(s) (microorganism bound by the targeting peptide)” value (bacteria) was “Mycobacteria spp”.

“PF-660 (chain 1 TDPQATAAPRRRTSPR; chain 2 TDPQATAAPRRRTSPR; Peptide with targeting and/or antimicrobial activity)” was tested, and the “Organism, effect (morphology, biofilm and growth disruption)” value (microorganisms; S. pneumoniae) was “S. pneumoniae (H)” and the “Target(s) (microorganism bound by the targeting peptide)” value (bacteria) was “Mycobacteria spp”.

“PF-661 (chain 1 PDEDIRRRAILPPAGPCRPMSPE; chain 2 PDEDIRRRAILPPAGPCRPMSPE; Peptide with targeting and/or antimicrobial activity)” was tested, and the “Organism, effect (morphology, biofilm and growth disruption)” value (microorganisms; MRSA) was “MRSA (R)” and the “Target(s) (microorganism bound by the targeting peptide)” value (bacteria) was “Mycobacteria spp”.

In the case of “PF-662 (chain 1 GKQSRAHGPVASRREFRRKSG; chain 2 GKQSRAHGPVASRREFRRKSG; Peptide with targeting and/or antimicrobial activity)”, the “Organism, effect (morphology, biofilm and growth disruption)” value (microorganisms; S. pneumoniae) is reported as “S. pneumoniae (A)” and the “Target(s) (microorganism bound by the targeting peptide)” value (bacteria) is reported as “Mycobacteria spp”.

In the case of “PF-663 (chain 1 ATLIPRKA; chain 2 ATLIPRKA; Peptide with targeting and/or antimicrobial activity)”, the “Organism, effect (morphology, biofilm and growth disruption)” value (microorganisms; S. pneumoniae) is reported as “S. pneumoniae (A)” and the “Target(s) (microorganism bound by the targeting peptide)” value (bacteria) is reported as “Mycobacteria spp”.
